In PMC8601599, “Computational redesign of a fluorogen activating protein with Rosetta” (PLoS Computational Biology, 2021):
Numbering of substitutions follows the chain as printed.

Tests used:
Experiment in all cases: fluorescence titration
Format in all cases: binding
[1] = biological target: T1, DiB1; DiB-RM (lipocalin Blc mutants) (Escherichia coli, UniProt P0A901, A36C/F53A/N76F/S89Y/S107A/L141N); settings: DiB-RM-V90E; apparent Kd; 1 μM chromophore, varied protein; excitation 490 nm
T1 construct: E. coli XJb(DE3) expression from pBAD, TALON then size exclusion; monomer in solution
T1 sequence (P0A901 20-177 A36C/F53A/N76F/S89Y/S107A/L141N): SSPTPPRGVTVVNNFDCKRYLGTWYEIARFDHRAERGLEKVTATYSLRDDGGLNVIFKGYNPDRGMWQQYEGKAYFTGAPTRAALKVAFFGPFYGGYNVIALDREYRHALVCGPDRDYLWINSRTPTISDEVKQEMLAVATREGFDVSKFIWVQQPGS
From the text: (§1) fluorescence titration on DiB1; DiB-RM (lipocalin Blc mutants)

[2] = biological target: T2, DiB1; DiB-RM (lipocalin Blc mutants) (Escherichia coli, UniProt P0A901, A36C/N76F/S89Y/E90V/S107A/L141N); settings: DiB-RM-A53F; apparent Kd; 1 μM chromophore, varied protein; excitation 490 nm
T2 construct: E. coli XJb(DE3) expression from pBAD, TALON then size exclusion; monomer in solution
T2 sequence (P0A901 20-177 A36C/N76F/S89Y/E90V/S107A/L141N): T1 sequence (P0A901 20-177 A36C/F53A/N76F/S89Y/S107A/L141N) with A34F, E71V
From the text: as §1

[3] = biological target: T3, DiB1; DiB-RM (lipocalin Blc mutants) (Escherichia coli, UniProt P0A901, A36C/F53A/N76F/E90V/S107A/L141N); settings: DiB-RM-Y89S; apparent Kd; 1 μM chromophore, varied protein; excitation 490 nm
T3 construct: E. coli XJb(DE3) expression from pBAD, TALON then size exclusion; monomer in solution
T3 sequence (P0A901 20-177 A36C/F53A/N76F/E90V/S107A/L141N): T1 sequence (P0A901 20-177 A36C/F53A/N76F/S89Y/S107A/L141N) with Y70S, E71V
From the text: as §1

[4] = biological target: T4, DiB1; DiB-RM (lipocalin Blc mutants) (Escherichia coli, UniProt P0A901, A36C/F53A/N76F/S89Y/E90V/L141N); settings: DiB-RM-A107S; apparent Kd; 1 μM chromophore, varied protein; excitation 490 nm
T4 construct: E. coli XJb(DE3) expression from pBAD, TALON then size exclusion; monomer in solution
T4 sequence (P0A901 20-177 A36C/F53A/N76F/S89Y/E90V/L141N): T1 sequence (P0A901 20-177 A36C/F53A/N76F/S89Y/S107A/L141N) with E71V, A88S
From the text: as §1

[5] = biological target: T5, DiB1; DiB-RM (lipocalin Blc mutants) (Escherichia coli, UniProt P0A901, A36C/L141N); settings: apparent Kd, 1 μM chromophore, varied protein, excitation 490 nm
T5 construct: E. coli XJb(DE3) expression from pBAD, TALON then size exclusion; monomer in solution
T5 sequence (P0A901 20-177 A36C/L141N): T1 sequence (P0A901 20-177 A36C/F53A/N76F/S89Y/S107A/L141N) with A34F, F57N, Y70S, A88S
From the text: as §1

[6] = biological target: T6, DiB1; DiB-RM (lipocalin Blc mutants) (Escherichia coli, UniProt P0A901, A36C/F53A/S89Y/E90V/S107A/L141N); settings: DiB-RM-F76N; apparent Kd; 1 μM chromophore, varied protein; excitation 490 nm
T6 construct: E. coli XJb(DE3) expression from pBAD, TALON then size exclusion; monomer in solution
T6 sequence (P0A901 20-177 A36C/F53A/S89Y/E90V/S107A/L141N): T1 sequence (P0A901 20-177 A36C/F53A/N76F/S89Y/S107A/L141N) with F57N, E71V
From the text: as §1

[7] = biological target: T7, DiB1; DiB-RM (lipocalin Blc mutants) (Escherichia coli, UniProt P0A901, A36C/F53A/N76F/S89Y/E90V/S107A/L141N); settings: apparent Kd, 1 μM chromophore, varied protein, excitation 490 nm
T7 construct: E. coli XJb(DE3) expression from pBAD, TALON then size exclusion; monomer in solution
T7 sequence (P0A901 20-177 A36C/F53A/N76F/S89Y/E90V/S107A/L141N): T1 sequence (P0A901 20-177 A36C/F53A/N76F/S89Y/S107A/L141N) with E71V
From the text: as §1

DiB-RM-split = biological target: T8, DiB-RM-split (Escherichia coli, UniProt P0A901, A36C/F53A/N76F/S89Y/E90V/S107A/L141N); settings: apparent Kd, 1 μM chromophore, varied protein, excitation 490 nm
T8 construct: gene blc; two co-expressed self-assembling fragments of DiB-RM split between residues 109 and 110; E. coli XJb(DE3), TALON then size exclusion
T8 sequence (P0A901 20-109 A36C/F53A/N76F/S89Y/E90V/S107A): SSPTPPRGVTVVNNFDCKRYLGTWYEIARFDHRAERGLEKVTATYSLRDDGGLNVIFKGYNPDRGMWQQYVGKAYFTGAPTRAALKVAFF
T8 sequence (P0A901 110-177 L141N): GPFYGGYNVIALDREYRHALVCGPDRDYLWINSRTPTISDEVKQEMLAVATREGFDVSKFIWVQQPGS
From the text: fluorescence titration on DiB-RM-split

## CCN(CC)c1ccc2c(c1)[B-](F)(F)[N+]1=C(C)N(C)C(=O)C1=C2 [M739]
[1]
  Kd: 380 ± 50 nM
[2]
  Kd: 160 ± 40 nM
[3]
  Kd: 660 ± 80 nM
[4]
  Kd: 290 ± 40 nM
[5]
  Kd: 40 ± 30 nM
[6]
  Kd: 70 ± 10 nM
[7]
  Kd: 170 ± 40 nM
DiB-RM-split
  Kd: 2800 ± 400 nM
